The text below walks through data of patent US11981702B2, “Compounds for fluorescence sensing of duplex formation” (San Diego State University Research Foundation, priority 2016, dated 2024).

Like-named read-outs stand apart in the source and are kept apart here. [8-DEA-tC] = 8-diethylamino tricyclic cytidine analogue (fluorescent), on 2'-deoxyribose

The conditions of data set [1]: value reported by the Tor group; cited from earlier work.
Data set [2] can be described thus: Quantum yield of fluorescence emission, comparative method of Williams et al., quinine sulfate standard (free nucleosides, single-stranded oligonucleotides). In kind it is physicochemical. As for the experimental part: (§1) Quantum yields of fluorescence emission were determined using the comparative method of Williams et. al. (Analyst 1983, 108, 1067) and a fluorescence standard of quinine sulfate in 0.1M H2SO4 (Table 1 and FIG. 2). The single-stranded oligonucleotides have quantum yields of fluorescence emission ranging from Φem=0.01-0.03, all brighter than the free 8-DEA-tC nucleoside by up to a factor of five. Addition of the complementary sequences and duplex formation results in further fluorescence increase in all sequences, up to Φem=0.12 for sequence GC. This quantum yield is 20-fold greater than that of the free 8-DEA-tC nucleoside, the largest such increase reported to date for a fluorescent nucleoside analogue.
(§2) All photophysical experiments were measured in a quartz sub-micro cuvette (10 mm path length) purchased from Starnacell Inc. Solutions were prepared in 1×PBS buffer at pH 7.4. Steady state emission scans were recorded using a PTI QuantaMaster QM-400 and absorbances were measured on a Shimadzu UV-1700 Pharmaspec spectrometer. Quantum yield measurements were performed the comparative method of Williams et. al. and measured in duplicate, at minimum.[7] Quinine sulfate in 0.1M H2SO4 was used as a reference standard for all photophysical measurements. Measurements by using a commercial sample of pyrrolo-dC to obtain a fluorescence quantum yield of 0.046, matching the value of 0.05 as reported by the Tor group were validated.[8] All measurements were taken with an absorbance range of 0.01-0.1. Subsequent dilutions were performed stepwise in order to obtain a minimum of five absorbance and emission spectra for quantum yield determinations. Representative data from these quantum yield measurements is plotted below. Quantum yield determinations were obtained using the following equation: […]
The determination of quantum yields for single-stranded oligonucleotides containing 8-DEA tC were calculated using the integrated emission intensity measurements of the single strand prior to the addition of the complementary strand, with the following equation. This method was validated by comparison with and confirmed with a SS quantum yield experiment.

The next data set has as its system DNA-RNA heteroduplex. Nature of the data set: Fluorescence turn-on response in DNA-RNA heteroduplex. In kind it is physicochemical. The following applies: 1x PBS buffer at pH 7.4. The text has this:
The RNA version (Y═OH) has been synthesized and characterized. […] The shape (conformation) of double-stranded nucleic acids can vary, and there are three major forms: A, B, and Z. Double-stranded DNA is naturally B form. Double-stranded RNA is naturally A form. And a DNA-RNA heteroduplex also naturally takes A form. For that reason, it is possible to use a DNA-RNA heteroduplex to predict fluorescence properties in pure RNA.

Data set [3] is described as follows: UV/Vis absorption and steady state emission spectra. It is filed as physicochemical. Particulars: 1x PBS buffer pH 7.4. As for the experimental part:
as §2
Normalized absorption and emission plots of single-stranded oligonucleotides and double-stranded oligonucleotides in 1×PBS buffer at pH 7.4 were determined accordingly.

The test system of data set [4] is complementary strand. Nature of the data set: Quantum yield of fluorescence emission of double-stranded oligonucleotides after adding complementary strand. In kind it is physicochemical. Particulars: double-stranded oligonucleotide, 1x PBS buffer pH 7.4. As for the experimental part:
as §1, §2
Samples of double-stranded oligonucleotides were prepared using a known concentration of single-stranded oligonucleotide and adding a total of 2.4 equivalents of complementary strand at room temperature. A single-strand absorbance and emission were taken prior to the addition of the first 1.2 equivalents of complementary strand for purposes of single-strand calculation and verification of hybridization. An additional 1.2 equivalent is added after the first double-strand to ensure that complete hybridization was achieved. Thermal annealing procedures had no effect on the measurements as expected, given that these sequences were chosen to have no competing, stable secondary structures.

The test system of data set [5] is complementary strand. Kind of data set: CD melting temperature of oligonucleotide duplexes (ellipticity at 255 nm). It is filed as physicochemical. As for the experimental part: UV CD spectra of oligonucleotide duplexes at a concentration of 5 μM in phosphate buffered saline (10 mM sodium phosphate, pH 7.4, […] potassium chloride, 137 mM sodium chloride) were collected at 25° C. in a 1 cm path length cell on an Aviv model 420 spectrophotometer equipped with a Peltier temperature controller. Background-subtracted spectra were smoothed and normalized to concentration using A260 nm as calculated from detector voltage using the following equation and converted to standard units. […] 255 nm was monitored from 15° C. to 75° C. at 1° C. increments. The TM of each duplex was calculated by fitting the raw data to a two-state model in Igor Pro. Melting curves are reported as fraction unfolded.

For `Cc1cc2cn([C@H]3C[C@H](O)[C@@H](CO)O3)c(=O)nc2[nH]1` [pyrrolo-dC, reference compound], the fluorescence quantum yield is given as 0.05 in data set [1] and 0.046 in data set [2] (commercial sample, method validation).
Turning to “AA: 5′-CGC-AAX-ATC-G-3′ (SEQ ID NO: 18), X = 8-DEA-tC (DNA CGCAACATCG; DNA, [8-DEA-tC] at 6, backbone not given here)”, the “ss Φem” value in data set [2] (single-stranded oligonucleotide, 1x PBS buffer pH 7.4) is 0.008. Also, in the data set with DNA-RNA heteroduplex, the “fluorescence turn-on effect in DNA-RNA heteroduplex relative to double-stranded DNA” value is “at least three times better”. In data set [3] (double-stranded), the “ds λmax,abs” value worked out at 410 nm and the “ds λmax,em” value came to 498 nm. In addition, in data set [3] (single-stranded), the “λmax,abs (ss)” value was 415 nm and the “λmax,em (ss)” value was 497 nm. The “ds Φem” value with complementary strand [4] came out at 0.042. In the data set on complementary strand [5] (Tm for natural DNA duplex subtracted from Tm for the 8-DEA-tC-containing duplex), the ΔTm is -2.6 °C. Further, the Tm in the data set on complementary strand [5] (duplex 5 μM in PBS pH 7.4) was determined as 48.4 °C.
